# Tests used:
# human Kv7.2+3 [1] = target: T1, human Kv7.2+3 (Homo sapiens, UniProt O43525+O43526); test: FLIPR-based thallium (I) influx characterization of Kv7.2+3 modulators; assay type: cell-based; settings: for EC50: HEK293 cells over-expressing human Kv7.2+3, Tl+ influx, BTC-AM, 50% of channel activity compared to retigabine control responses; for Efficacy: maximal response relative to the reference (retigabine) response
# T1 construct: expressed in transfected cells; host or cells: HEK293
# Protocol: This experiment determines the ability of a test compound to modulate the activity of Kv7.2+3 channels heterologously expressed in human HEK293 cells. The ability is determined relative to retigabine. The activity is determined using a standard thallium (I) sensitive assay, e.g. using a fluorometric method in a Fluorescent Image Plate Reader (FLIPR) as described below in more detail.
# Full concentration/response curves are generated and EC50 values are calculated based on max values. EC50 values (Effective Concentration) represent the concentration of the test substance, at which 50% of the channel activity is obtained when compared to retigabine control responses. Maximal response determined relative to the reference (retigabine) response is calculated.
# Human HEK293 cells over-expressing human Kv7.2+3 are grown in culture medium (DMEM supplemented with 10% foetal bovine serum), in polystyrene culture flasks ([…]) in a humidified atmosphere of 5% CO2 in air, at 37° C. Cell confluence should be 80-90% on day of plating. Cells are rinsed with 4 ml of PBS (phosphate buffered saline) and incubated 2 min with 1 ml of Trypsin-EDTA. After addition of 25 ml of culture medium cells are re-suspended by trituration with a 25 ml pipette.
# The cells are seeded at a density of ˜3×10^6 cells/ml (25 μl/well) in blackwalled, clear bottom, 384-well plates pre-treated with 0.01 g/l poly-D-lysin (20 μl/well for ≧30 min). Plated cells were allowed to proliferate for 24 h before loading with dye.
# BTC-AM (50 mg, Invitrogen) is added 25.5 μl DMSO. The BTC-AM stock solution (2 mM) is diluted to a final concentration of 2 μM in Cl^− free assay buffer (in mM: 140 Na^−-gluconate, 2.5 K^+-gluconate, 6 Ca2^+-gluconate, 1 Mg^2+ gluconate, 5 glucose, 10 HEPES, pH 7.3) containing 2 μM ouabain, 2 mM amaranth and 1 mM tartrazine. […]
# After the loading period, the Tl^+-sensitive BTC fluorescence signal is measured over time using a FLIPR.
# • Temperature: Room temp. • First addition: 12 μl test or control compound after 15 sec at a rate of 30 μl/sec and starting height of 20 μl • Second addition: 12 μl stimulus buffer (Cl^− free assay buffer supplemented with 1 mM Tl2SO4, 5 mM K2SO4 as well as the quenchers amaranth (2 mM) and tartrazine (1 mM)) is added after an additional 3 minutes at a rate of 30 μl/sec and starting height of 30 μl • Reading intervals: First sequence—3 sec×5, 2 sec×24 and 5 sec×25 • Second sequence—1 sec×5, 2 sec×24 and 5 sec×36 Addition plates (compound plate and stimulus plate) are placed in positions 2 and 3, respectively. […] Fluorescence obtained after stimulation is corrected for the mean basal fluorescence (in Cl^− free assay buffer). […]
# human Kv7.2+3 [2] = target: T1, human Kv7.2+3; test: Patch-clamp on HEK293 cell lines stably expressing human Kv7.2+3 channels; assay type: cell-based; settings: current relative to baseline current defined as 100%
# Source text: The effect obtained by these channel activators is described as a percentage increase in baseline current at a given concentration. The baseline current is defined as 100%, and an increase in current is expressed relative to this, i.e. an increase from 1 nA to 1.2 nA is reported as 120%.
SMILES,EC50 (human Kv7.2+3 [1]) [nM],Efficacy (human Kv7.2+3 [1]) [%],"IK (%) conc. 0.3 μM, −30 mV, 20 ms (human Kv7.2+3 [2])","IK (%) conc. 0.03 μM, −30 mV, 20 ms (human Kv7.2+3 [2]; 0.03 μM) [%]"
"Cc1ccoc1C(=O)Nc1c(C)cc(N2CCCOCC2)nc1N1CC[C@@H](F)C1 [Compound 1.1, 3-Methyl-furan-2-carboxylic acid [2-((R)-3-fluoro-pyrrolidin-1-yl)-4-methyl-6-[1,4]oxazepan-4-yl-pyridin-3-yl]-amide]",1200,98,293 (n = 2) %,–
"Cc1ccoc1C(=O)Nc1c(C)cc(N2CCOCC2)nc1N1CC[C@@H](F)C1 [Compound 1.2, 3-Methyl-furan-2-carboxylic acid [2-((R)-3-fluoro-pyrrolidin-1-yl)-4-methyl-6-morpholin-4-yl-pyridin-3-yl]-amide]",190,98,428 (n = 5) %,136

# Source: US20120238547A1, “2, 3, 6 - TRIAMINO SUBSTITUTED PYRIDINES AS KV7 (KCNQ) CHANNEL MODULATORS” (NEUROSEARCH A/S, priority 2009, published 2012)
